Assay results taken from the NIST ThermoML archive (doi:10.1016/j.jct.2018.03.016).

Details: Liquid; for mass density: Vibrating tube method; for speed of sound: Frequency=5 MHz, Single path-length method

CCC(=O)[O-].[NH3+]CCO [2-hydroxyethan-1-aminium propionate]
Details	mass density [kg/m3]	speed of sound [m/s]
298.08 K, 10000 kPa	1124.9	–
298.1 K, 30000 kPa	1131.1	–
298.11 K, 15000 kPa	1127.6	–
298.13 K, 35000 kPa	1132.5	–
298.15 K, 20000 kPa	1128.2	–
298.15 K, 25000 kPa	1129.4	–
298.16 K, 100 kPa	1121.1	–
303.03 K, 30000 kPa	1126.3	–
303.07 K, 25000 kPa	1124.9	–
303.07 K, 35000 kPa	1127.2	–
303.09 K, 10000 kPa	1121	–
303.09 K, 15000 kPa	1121.8	–
303.1 K, 20000 kPa	1123.3	–
303.15 K, 100 kPa	1116	1554.7
303.15 K, 1000 kPa	–	1558.7
303.15 K, 2000 kPa	–	1562.7
303.15 K, 3000 kPa	–	1566.7
303.15 K, 4000 kPa	–	1570.7
303.15 K, 5000 kPa	–	1574.7
303.15 K, 6000 kPa	–	1578.8
303.15 K, 7000 kPa	–	1582.9
303.15 K, 8000 kPa	–	1587
303.15 K, 9000 kPa	–	1591.1
303.15 K, 10000 kPa	–	1595.2
303.15 K, 11000 kPa	–	1599.4
303.15 K, 12000 kPa	–	1602.1
303.15 K, 13000 kPa	–	1606.3
303.15 K, 14000 kPa	–	1610.5
303.15 K, 15000 kPa	–	1613.3
303.15 K, 16000 kPa	–	1617.6
303.15 K, 17000 kPa	–	1620.4
303.15 K, 18000 kPa	–	1624.6
303.15 K, 19000 kPa	–	1628.9
303.15 K, 20000 kPa	–	1633.2
313.14 K, 100 kPa	1105.3	–
313.15 K, 100 kPa	–	1526.8
313.15 K, 1000 kPa	–	1531.9
313.15 K, 2000 kPa	–	1535.7
313.15 K, 3000 kPa	–	1539.5
313.15 K, 4000 kPa	–	1542.1
313.15 K, 5000 kPa	–	1546
313.15 K, 6000 kPa	–	1549.9
313.15 K, 7000 kPa	–	1553.8
313.15 K, 8000 kPa	–	1557.8
313.15 K, 9000 kPa	–	1561.7
313.15 K, 10000 kPa	–	1565.7
313.15 K, 11000 kPa	–	1569.7
313.15 K, 12000 kPa	–	1573.7
313.15 K, 13000 kPa	–	1577.7
313.15 K, 14000 kPa	–	1581.7
313.15 K, 15000 kPa	–	1585.8
313.15 K, 16000 kPa	–	1589.9
313.15 K, 17000 kPa	–	1594
313.15 K, 18000 kPa	–	1598.1
313.15 K, 19000 kPa	–	1602.2
313.15 K, 20000 kPa	–	1606.4
313.16 K, 15000 kPa	1111.3	–
313.17 K, 10000 kPa	1110.2	–
313.17 K, 35000 kPa	1117.8	–
313.18 K, 20000 kPa	1113.3	–
313.18 K, 30000 kPa	1116.2	–
313.19 K, 25000 kPa	1114.8	–
323.09 K, 10000 kPa	1098.3	–
323.1 K, 100 kPa	1093	–
323.1 K, 25000 kPa	1103.9	–
323.12 K, 30000 kPa	1105.5	–
323.14 K, 15000 kPa	1099.7	–
323.14 K, 20000 kPa	1102	–
323.14 K, 35000 kPa	1107.3	–
323.15 K, 100 kPa	–	1506.1
323.15 K, 1000 kPa	–	1509.8
323.15 K, 2000 kPa	–	1513.6
323.15 K, 3000 kPa	–	1517.3
323.15 K, 4000 kPa	–	1521.1
323.15 K, 5000 kPa	–	1524.9
323.15 K, 6000 kPa	–	1528.7
323.15 K, 7000 kPa	–	1533.8
323.15 K, 8000 kPa	–	1537.6
323.15 K, 9000 kPa	–	1541.5
323.15 K, 10000 kPa	–	1545.4
323.15 K, 11000 kPa	–	1549.2
323.15 K, 12000 kPa	–	1553.2
323.15 K, 13000 kPa	–	1558.4
323.15 K, 14000 kPa	–	1562.3
323.15 K, 15000 kPa	–	1566.3
323.15 K, 16000 kPa	–	1568.9
323.15 K, 17000 kPa	–	1572.9
323.15 K, 18000 kPa	–	1576.9
323.15 K, 19000 kPa	–	1581
323.15 K, 20000 kPa	–	1585
333.08 K, 35000 kPa	1096.1	–
333.09 K, 10000 kPa	1084.9	–
333.09 K, 15000 kPa	1087.4	–
333.09 K, 25000 kPa	1091.8	–
333.09 K, 30000 kPa	1093.9	–
333.1 K, 20000 kPa	1089.7	–
333.12 K, 100 kPa	1079.6	–
333.15 K, 100 kPa	–	1474.9
333.15 K, 1000 kPa	–	1479.7
333.15 K, 2000 kPa	–	1484.6
333.15 K, 3000 kPa	–	1488.3
333.15 K, 4000 kPa	–	1493.2
333.15 K, 5000 kPa	–	1497
333.15 K, 6000 kPa	–	1501.9
333.15 K, 7000 kPa	–	1505.7
333.15 K, 8000 kPa	–	1509.5
333.15 K, 9000 kPa	–	1514.5
333.15 K, 10000 kPa	–	1518.3
333.15 K, 11000 kPa	–	1523.3
333.15 K, 12000 kPa	–	1527.2
333.15 K, 13000 kPa	–	1531
333.15 K, 14000 kPa	–	1534.9
333.15 K, 15000 kPa	–	1540
333.15 K, 16000 kPa	–	1543.8
333.15 K, 17000 kPa	–	1547.7
333.15 K, 18000 kPa	–	1551.6
333.15 K, 19000 kPa	–	1555.5
333.15 K, 20000 kPa	–	1559.5
343.15 K, 100 kPa	–	1449.3
343.15 K, 1000 kPa	–	1453
343.15 K, 2000 kPa	–	1456.8
343.15 K, 3000 kPa	–	1461.8
343.15 K, 4000 kPa	–	1466.7
343.15 K, 5000 kPa	–	1471.7
343.15 K, 6000 kPa	–	1475.5
343.15 K, 7000 kPa	–	1480.5
343.15 K, 8000 kPa	–	1485.5
343.15 K, 9000 kPa	–	1489.3
343.15 K, 10000 kPa	–	1494.3
343.15 K, 11000 kPa	–	1499.4
343.15 K, 12000 kPa	–	1503.2
343.15 K, 13000 kPa	–	1508.2
343.15 K, 14000 kPa	–	1513.3
343.15 K, 15000 kPa	–	1517.2
343.15 K, 16000 kPa	–	1522.2
343.15 K, 17000 kPa	–	1526.1
343.15 K, 18000 kPa	–	1530
343.15 K, 19000 kPa	–	1533.8
343.15 K, 20000 kPa	–	1537.7
343.17 K, 100 kPa	1066	–
343.17 K, 20000 kPa	1076.6	–
343.17 K, 25000 kPa	1079	–
343.17 K, 30000 kPa	1081.8	–
343.18 K, 15000 kPa	1074.3	–
343.18 K, 35000 kPa	1084.1	–
343.19 K, 10000 kPa	1070.6	–
353.15 K, 100 kPa	–	1416
353.15 K, 1000 kPa	–	1421
353.15 K, 2000 kPa	–	1426.1
353.15 K, 3000 kPa	–	1431.2
353.15 K, 4000 kPa	–	1436.3
353.15 K, 5000 kPa	–	1441.4
353.15 K, 6000 kPa	–	1446.5
353.15 K, 7000 kPa	–	1451.7
353.15 K, 8000 kPa	–	1456.8
353.15 K, 9000 kPa	–	1463.1
353.15 K, 10000 kPa	–	1467
353.15 K, 11000 kPa	–	1473.3
353.15 K, 12000 kPa	–	1478.4
353.15 K, 13000 kPa	–	1482.4
353.15 K, 14000 kPa	–	1487.5
353.15 K, 15000 kPa	–	1492.6
353.15 K, 16000 kPa	–	1496.5
353.15 K, 17000 kPa	–	1500.4
353.15 K, 18000 kPa	–	1504.4
353.15 K, 19000 kPa	–	1509.5
353.15 K, 20000 kPa	–	1513.3
